{"source": "patent US8609718B2", "about": "“Pharmaceutical composition used in treatment of hyperproliferative skin conditions and malignant melanomas comprising pachastrissamine as active ingredient” (Catholic University Industry Academy Cooperation Foundation, priority 2009, dated 2013)", "key": {"ERK": {"test_system": "ERK", "assay": "Western blotting of EGF-induced ERK activity in HEK293T", "type": "cell-based", "conditions": "with 100 μg/ml of EGF, FIG. 3D", "experimental": "In the same manner, in a sample of HEK293T (Kidney epithelial cell) cell line treated with pachastrissamine and 100 μg/ml of EGF (epidermal growth factor), ERK activity was determined (see FIG. 3D)."}, "HaCaT cell line": {"test_system": "HaCaT cell line", "assay": "MTT cell viability analysis (cytotoxicity), HaCaT", "type": "cell-based, human", "conditions": "24 hours, FIG. 1", "experimental": "(§1) Pachastrissamine's cytotoxicity on a HaCaT cell line and a malignant melanoma cell line was researched through MTT cell viability analysis.\n(§2) First, each of a HaCaT cell line (German Cancer Research, obtained from prof. N. Fuseni, Germany), and two kinds of malignant melanoma cell lines, B16F10 (B16) and A375 were inoculated into a DMEM (Dulbecco's Modified Eagle's Medium) culture medium added with 10% FBS (Thermo Fisher Scientific Inc.), 100 unit/ml penicillin, and 100 μg/ml streptomycin, and then cultured in a CO2 incubator (Form a Scientific, Inc.) (37° C., 5%).\n(§3) The cultured HaCaT, B16F10, and A375 cells were plated onto a 96-well plate at a concentration of 5×10^4 cells/well, and cultured in a CO2 incubator (37° C., 5%) for 24 hours. The cells in respective wells were treated with pachastrissamine and phytosphingosine at various concentrations of 0, 0.9, 1.8, 3.7, 7.5, 10 μg/ml, and cultured in a CO2 incubator (37° C., 5%) for 24 hours. After the culturing, in a state where the culture medium existed, each well was added with 5 mg/ml MTT reagent at a concentration of 20 μl/[…], and cultured in an incubator for 2 hours. After 2 hours, the culture medium was removed, and each well was added with 150 μl of DMSO (dimethyl sulfoxide). Then, a spectrophotometer was used to measure the absorbance at 540 nm, thereby analyzing the cell viability. Herein, the cell viability was represented as a relative value with respect to 100% of cell viability in a control group not treated with pachastrissamine and phytosphingosine."}, "FoxO3a": {"test_system": "FoxO3a", "assay": "Western blotting of FoxO3a protein expression in HaCaT", "type": "cell-based, human", "experimental": "A HaCaT cell line was cultured in the same manner as described in Example 1. […] Then, western blotting was carried out by using FoxO3a antibody as a primary antibody.\nThen, western blotting was carried out by using FoxO3a antibody as a primary antibody so as to carry out comparative analysis on the level of protein expression."}, "HaCaT cell": {"test_system": "HaCaT cell", "assay": "Phase-contrast microscope morphology analysis of surviving cells", "type": "cell-based, human", "conditions": "HaCaT, 24 hours", "experimental": "HaCaT, B16F10 and A375 cell lines were cultured in the same manner as described in Example 1. The cultured HaCaT cell line was plated onto a 60 mm plate at a concentration of 5×10^4 cells/well, and cultured in a CO2 incubator (37° C., 5%) for 24 hours. The cultured respective cells were divided into 4 groups. One group was added with only pachastrissamine (PA) at a concentration of 10 μg/ml; another group was added with lithium chloride (apoptosis inhibiting material) (at a final concentration of 300 nM) as well as pachastrissamine at a concentration of 10 μg/ml (PA+Li); and a third group was added with only lithium chloride (Li). The last group was a negative control group (Con) and was added with nothing. These groups were cultured in a CO2 incubator (37° C., 5%) for 24 hours, and then the number of cells were measured in the same manner as described in Example 2-2.\nThe four groups of HaCaT cell samples were washed with PBS, and then surviving cells were subjected to morphology analysis through a phase-contrast microscope (see FIG. 2f)."}, "[1]": {"test_system": "malignant melanoma cell line B16F10", "assay": "MTT cell viability analysis (cytotoxicity), B16F10", "type": "cell-based", "conditions": "24 hours, FIG. 1", "experimental": "as §1, §2, §3"}, "[2]": {"test_system": "malignant melanoma cell line A375", "assay": "MTT cell viability analysis (cytotoxicity), A375", "type": "cell-based", "conditions": "24 hours, FIG. 1", "experimental": "as §1, §2, §3"}, "p-FoxO3a (Ser 253)": {"test_system": "p-FoxO3a (Ser 253)", "assay": "Western blotting of p-FoxO3a (Ser 253)", "type": "cell-based", "conditions": "HaCaT, A375, B16F10, 10 μg/ml, FIGS. 4B, 4C", "experimental": "In the same manner as described in Example 4-1, a HaCaT cell line and malignant melanoma cell lines (A375 and B16F10) were treated with pachastrissamine and phytosphingosine at a concentration of 10 μg/ml for 30 minutes and 60 minutes, respectively. Then, western blotting was carried out using p-FoxO3a (Ser 253) antibody."}, "GSK3-beta / beta-catenin": {"test_system": "GSK3-beta / beta-catenin", "assay": "Western blotting of pGSK3-beta, GSK3-beta, pCatenin and Catenin in HaCaT", "type": "cell-based, human", "conditions": "30 minutes, FIG. 5A", "experimental": "The pachastrissamine's effect on beta-catenin protein expression was researched. In the same manner as described in Example 1, a HaCaT cell line was cultured."}, "beta-catenin": {"test_system": "beta-catenin", "assay": "Beta-catenin protein in malignant melanoma cell line (FIG. 5B)", "type": "cell-based"}, "[3]": {"test_system": "malignant melanoma cell line B16F10", "assay": "Mouse malignant melanoma (B16F10) lung metastasis model", "type": "in vivo", "conditions": "C57BL6 mouse, B16F10 1×10^6 via tail vein; inoculated once per 4 days (three times); lung on 14th day; FIG. 6", "experimental": "In a C57BL6 mouse, pachastrissamine's effect on malignant melanoma metastasis inhibition was researched. A mouse (aged 6 weeks) was inoculated with a malignant melanoma cell line B16F10 (1×10^6) through a tail vein. After 24 hours from the inoculation, pachastrissamine was inoculated, and also, in a control group, PBS was inoculated in the same amount. Pachastrissamine was inoculated once per 4 days (three times), and on the 14th day from the inoculation of cells, the mouse was dissected to extract the lung. The extracted lung was immersed in 4% formalin solution for 16 hours or more, and washed for 16 hours or more. After the washing, the extracted lung was photographed, and other tissues were embedded in paraffin to make a block. Then, a tissue slice with a thickness of […] was prepared. The tissue slice was subjected to a deparaffin process for H&E (Hematoxylin & Eosin) staining, and then sequentially reacted with 100%, 90%, 80%, 70%, and 60% alcohol solutions to complete the hydration reaction. The completely hydrated slice was subjected to H&E staining, and then reacted with the alcohol solutions in reverse order of the hydration reaction to perform a dehydration reaction. When the dehydration reaction was completed, the slice was fixed on a slide and observed by a microscope."}, "[4]": {"conditions": "0, 0.9, 1.8, 3.7, 7.5, 10 μg/ml"}, "[5]": {"conditions": "pachastrissamine 10 μg/ml, LiCl 300 nM"}}, "data": [{"smiles": "CCCCCCCCCCCCCC[C@@H]1OC[C@H](N)[C@@H]1O", "note": "[pachastrissamine]", "values": [{"measurement": "ERK activity caused by EGF", "setting": "ERK", "value": "almost perfectly inhibit the ERK activity caused by EGF"}, {"measurement": "cell viability (number of surviving cells) with increasing concentration", "setting": "HaCaT cell line; [4]", "value": "the number of surviving cells was reduced"}, {"measurement": "cytotoxicity compared with phytosphingosine", "setting": "HaCaT cell line", "value": "lower cytotoxicity than phytosphingosine"}, {"measurement": "protein expression level of FoxO3a compared to control group", "setting": "FoxO3a; 5 and 10 μg/ml, 24 hours, FIG. 4A", "value": "increased"}, {"measurement": "extent of protein expression of FoxO3a, pachastrissamine and PD98059 together", "setting": "FoxO3a; pachastrissamine together with PD98059, versus each single material, FIG. 4E", "value": "it was not found that the extent of protein expression was increased"}, {"measurement": "extent of protein expression of FoxO3a, pachastrissamine and U0126 together", "setting": "FoxO3a; pachastrissamine together with U0126, versus each single material, FIG. 4E", "value": "significantly increased compared to other samples treated with each single material"}, {"measurement": "level of protein expression of FoxO3a, single material", "setting": "FoxO3a; treated as in Example 3-2, compared to negative control, FIG. 4E", "value": "the amount of FoxO3a protein was increased"}, {"measurement": "number of surviving cells compared to negative control group", "setting": "HaCaT cell; 10 μg/ml, phase-contrast microscope, FIG. 2f", "value": "the number of surviving cells was significantly reduced"}, {"measurement": "cell division extent increased by lithium chloride, effect of pachastrissamine", "setting": "HaCaT cell; pachastrissamine 10 μg/ml + lithium chloride 300 nM", "value": "inhibited"}, {"measurement": "cell viability (number of surviving cells) with increasing concentration", "setting": "[1]; [4]", "value": "the number of surviving cells was reduced"}, {"measurement": "cytotoxicity compared with phytosphingosine", "setting": "[1]", "value": "lower cytotoxicity than phytosphingosine"}, {"measurement": "cell viability (number of surviving cells) with increasing concentration", "setting": "[2]; [4]", "value": "the number of surviving cells was reduced"}, {"measurement": "cytotoxicity compared with phytosphingosine", "setting": "[2]", "value": "lower cytotoxicity than phytosphingosine"}, {"measurement": "amount of expressed p-FoxO3a after 30 minutes", "setting": "p-FoxO3a (Ser 253); 30 minutes", "value": "reduced"}, {"measurement": "expression of p-FoxO3a after 60 minutes", "setting": "p-FoxO3a (Ser 253); 60 minutes", "value": "increased an expression of p-FoxO3a"}, {"measurement": "beta-catenin protein degradation", "setting": "GSK3-beta / beta-catenin; 10 μg/ml", "value": "induced the degradation of beta-catenin protein"}, {"measurement": "phosphorylation of GSK3-beta", "setting": "GSK3-beta / beta-catenin; [5]", "value": "phosphorylation of GSK3-beta was inhibited"}, {"measurement": "phosphorylation of beta-catenin", "setting": "GSK3-beta / beta-catenin; [5]", "value": "increasing the phosphorylation of beta-catenin"}, {"measurement": "beta-catenin protein degradation in malignant melanoma cell line", "setting": "beta-catenin", "value": "can induce the degradation of beta-catenin protein"}, {"measurement": "malignant melanoma metastasis to the lung compared to control group", "setting": "[3]", "value": "significantly inhibited"}]}]}
